The first series has as its system human Factor XI mRNA. The series can be described thus: Antisense inhibition in HepG2 cells by microwalk gapmers, 75 nM, lipofectin (Example 3). It is filed as cell-based. The settings on record: HepG2 cells, 75 nM, oligonucleotides targeted to nucleobases 1275 to 1318 of SEQ ID NO: 1. The gist of the method: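 HepG2 cells (10,000 per well) were transfected with 75 nM gapmer using lipofectin and treated for about 24 h. Factor XI mRNA was quantified by real-time PCR, normalized to RiboGreen total RNA and expressed as percent inhibition versus untreated controls.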
Consider “416856 (antisense GGCATTGGTGCACAGTTTCT; 5-10-5 gapmer, wing sugar chemistry not given here, further chemistry not given here) [compound 416856]”, for which the “% inhibition of human Factor XI mRNA levels” value (“% inhibition” below) is on record as 95%.

Turning to “416861 (antisense GCGGACGGCATTGGTGCACA; 5-10-5 gapmer, wing sugar chemistry not given here, further chemistry not given here) [compound 416861]”, the “% inhibition” value came to 92%.

Turning to “416867 (antisense ACTGGCAGCGGACGGCATTG; 5-10-5 gapmer, wing sugar chemistry not given here, further chemistry not given here) [compound 416867]”, the “% inhibition” value was found to be 83%.

Regarding “416866 (antisense CTGGCAGCGGACGGCATTGG; 5-10-5 gapmer, wing sugar chemistry not given here, further chemistry not given here) [compound 416866]”, the “% inhibition” value came to 88%.

As for “416848 (antisense CACAGTTTCTGGCAGGCCTC; 5-10-5 gapmer, wing sugar chemistry not given here, further chemistry not given here) [compound 416848]”, the “% inhibition” value was 86%.

For “416859 (antisense GACGGCATTGGTGCACAGTT; 5-10-5 gapmer, wing sugar chemistry not given here, further chemistry not given here) [compound 416859]”, the “% inhibition” value came to 90%.

The next series deals with human Factor XI mRNA. The series is described as follows: Dose-dependent inhibition in HepG2 cells, lipofectin (Example 4). It is filed as cell-based. The settings on record: 9.375 nM, 16 hours. The gist of the method: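 Read-out was percent inhibition of Factor XI mRNA relative to untreated controls, by qRT-PCR (RTS 2966) adjusted for RIBOGREEN-measured total RNA. Cells received antisense oligonucleotide at 9.375 to 75 nM (four levels) via lipofectin. Treatment lasted approximately 16 hours, with plating at 10,000 cells per well.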
Consider “416856 (antisense GGCATTGGTGCACAGTTTCT; 5-10-5 gapmer, wing sugar chemistry not given here, further chemistry not given here) [compound 416856]”, for which the “percent inhibition of Factor XI mRNA, relative to untreated control cells” value is reported as 21%.

Staying with this series, now noted: 18.75 nM, 16 hours.
As to “416856 (antisense GGCATTGGTGCACAGTTTCT; 5-10-5 gapmer, wing sugar chemistry not given here, further chemistry not given here) [compound 416856]”, the “percent inhibition of Factor XI mRNA, relative to untreated control cells” value was determined as 45%.

The series is the same for the next values; noted with them: 37.5 nM, 16 hours.
Consider “416856 (antisense GGCATTGGTGCACAGTTTCT; 5-10-5 gapmer, wing sugar chemistry not given here, further chemistry not given here) [compound 416856]”, for which the “percent inhibition of Factor XI mRNA, relative to untreated control cells” value is listed as 58%.

The same series, now with this note: 75 nM, 16 hours.
As for “416856 (antisense GGCATTGGTGCACAGTTTCT; 5-10-5 gapmer, wing sugar chemistry not given here, further chemistry not given here) [compound 416856]”, the “percent inhibition of Factor XI mRNA, relative to untreated control cells” value worked out at 74%.

A further series has as its system human Factor XI mRNA. The series can be described thus: Dose-dependent inhibition in HepG2 cells, electroporation (Example 4). It counts as cell-based. The settings on record: 0.7 μM, 16 hours. The gist of the method:
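HepG2 cells electroporated with 0.7, 2.2, 6.7 or 20 μM antisense gapmer and harvested after ~16 h. Factor XI mRNA quantified by qRT-PCR (primer probe set RTS 2966), normalised to total RNA (RIBOGREEN). Reported as percent inhibition versus untreated control cells.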
Regarding “416856 (antisense GGCATTGGTGCACAGTTTCT; 5-10-5 gapmer, wing sugar chemistry not given here, further chemistry not given here) [compound 416856]”, the “percent inhibition of Factor XI mRNA, relative to untreated control cells” value is 0%.

Staying with this series, now noted: 2.2 μM, 16 hours.
Take “416856 (antisense GGCATTGGTGCACAGTTTCT; 5-10-5 gapmer, wing sugar chemistry not given here, further chemistry not given here) [compound 416856]”: the “percent inhibition of Factor XI mRNA, relative to untreated control cells” value turned out to be 29%.

The same series, now with this note: 6.7 μM, 16 hours.
With “416856 (antisense GGCATTGGTGCACAGTTTCT; 5-10-5 gapmer, wing sugar chemistry not given here, further chemistry not given here) [compound 416856]”, the “percent inhibition of Factor XI mRNA, relative to untreated control cells” value came to 47%.

The same series, now with this note: 20 μM, 16 hours.
As to “416856 (antisense GGCATTGGTGCACAGTTTCT; 5-10-5 gapmer, wing sugar chemistry not given here, further chemistry not given here) [compound 416856]”, the “percent inhibition of Factor XI mRNA, relative to untreated control cells” value is 93%.

A further series relates to human Factor XI mRNA. The series can be described thus: Antisense inhibition in HepG2 cells by microwalk gapmers, 8,000 nM, electroporation (Example 14). It counts as cell-based. The settings on record: HepG2 cells, 8,000 nM. Put shortly: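 Percent reduction of Factor XI transcript, relative to untreated controls, by real-time PCR with RIBOGREEN normalisation. Readout taken about 24 h after electroporating HepG2 cells with 8,000 nM oligonucleotide. Gapmers are 5-10-5, 5-8-5 or 6-8-6 MOE wings, phosphorothioate backbone.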
For “416856 (antisense GGCATTGGTGCACAGTTTCT; 5-10-5 gapmer, wing sugar chemistry not given here, further chemistry not given here) [compound 416856]”, the “Percent inhibition of human Factor XI mRNA levels” value was 84%.

Consider “416861 (antisense GCGGACGGCATTGGTGCACA; 5-10-5 gapmer, wing sugar chemistry not given here, further chemistry not given here) [compound 416861]”, for which the “Percent inhibition of human Factor XI mRNA levels” value was 90%.

Regarding “416867 (antisense ACTGGCAGCGGACGGCATTG; 5-10-5 gapmer, wing sugar chemistry not given here, further chemistry not given here) [compound 416867]”, the “Percent inhibition of human Factor XI mRNA levels” value worked out at 85%.

On to “416866 (antisense CTGGCAGCGGACGGCATTGG; 5-10-5 gapmer, wing sugar chemistry not given here, further chemistry not given here) [compound 416866]”, for which the “Percent inhibition of human Factor XI mRNA levels” value is reported as 84%.

Turning to “416848 (antisense CACAGTTTCTGGCAGGCCTC; 5-10-5 gapmer, wing sugar chemistry not given here, further chemistry not given here) [compound 416848]”, the “Percent inhibition of human Factor XI mRNA levels” value is 87%.

For the substance “416859 (antisense GACGGCATTGGTGCACAGTT; 5-10-5 gapmer, wing sugar chemistry not given here, further chemistry not given here) [compound 416859]”, the “Percent inhibition of human Factor XI mRNA levels” value turned out to be 85%.

For a further series, the system named is human Factor XI mRNA. The series can be described thus: Dose-dependent inhibition and IC50 in HepG2 cells, electroporation (Example 15). It counts as cell-based. The settings on record: electroporation, 123.47 nM. The method, then: Cells were plated at a density of 20,000 cells per well and transfected using electroporation with 123.46 nM, 370.37 nM, 1,111.11 nM, 3,333.33 nM and 10,000 nM concentrations of antisense oligonucleotide, as specified in Table 52. After a treatment period of approximately 16 hours, RNA was isolated from the cells and Factor XI mRNA levels were measured by quantitative real-time PCR. Human Factor XI primer probe set RTS 2966 was used to measure mRNA levels. Factor XI mRNA levels were adjusted according to total RNA content, as measured by RIBOGREEN. Results are presented as percent inhibition of Factor XI, relative to untreated control cells.
Consider “416856 (antisense GGCATTGGTGCACAGTTTCT; 5-10-5 gapmer, wing sugar chemistry not given here, further chemistry not given here) [compound 416856]”, for which the “percent inhibition of Factor XI mRNA” value was determined as 12%.

In the case of “416861 (antisense GCGGACGGCATTGGTGCACA; 5-10-5 gapmer, wing sugar chemistry not given here, further chemistry not given here) [compound 416861]”, the “percent inhibition of Factor XI mRNA” value worked out at 0%.

The same series, now with this note: electroporation, 370.37 nM.
With “416856 (antisense GGCATTGGTGCACAGTTTCT; 5-10-5 gapmer, wing sugar chemistry not given here, further chemistry not given here) [compound 416856]”, the “percent inhibition of Factor XI mRNA” value is 23%.

In the case of “416861 (antisense GCGGACGGCATTGGTGCACA; 5-10-5 gapmer, wing sugar chemistry not given here, further chemistry not given here) [compound 416861]”, the “percent inhibition of Factor XI mRNA” value is 15%.

Staying with this series, now noted: electroporation, 1,111.11 nM.
On to “416856 (antisense GGCATTGGTGCACAGTTTCT; 5-10-5 gapmer, wing sugar chemistry not given here, further chemistry not given here) [compound 416856]”, for which the “percent inhibition of Factor XI mRNA” value turned out to be 35%.

Regarding “416861 (antisense GCGGACGGCATTGGTGCACA; 5-10-5 gapmer, wing sugar chemistry not given here, further chemistry not given here) [compound 416861]”, the “percent inhibition of Factor XI mRNA” value is 27%.

The series is the same for the next values; noted with them: electroporation, 3,333.33 nM.
For “416856 (antisense GGCATTGGTGCACAGTTTCT; 5-10-5 gapmer, wing sugar chemistry not given here, further chemistry not given here) [compound 416856]”, the “percent inhibition of Factor XI mRNA” value came to 59%.

Consider “416861 (antisense GCGGACGGCATTGGTGCACA; 5-10-5 gapmer, wing sugar chemistry not given here, further chemistry not given here) [compound 416861]”, for which the “percent inhibition of Factor XI mRNA” value was determined as 66%.

Staying with this series, now noted: electroporation, 10,000.0 nM.
On to “416856 (antisense GGCATTGGTGCACAGTTTCT; 5-10-5 gapmer, wing sugar chemistry not given here, further chemistry not given here) [compound 416856]”, for which the “percent inhibition of Factor XI mRNA” value worked out at 83%.

In the case of “416861 (antisense GCGGACGGCATTGGTGCACA; 5-10-5 gapmer, wing sugar chemistry not given here, further chemistry not given here) [compound 416861]”, the “percent inhibition of Factor XI mRNA” value was found to be 80%.

Tested on in a further series: not given
Test: not given
More on the design: species or system Sprague-Dawley rats. The settings on record: rat, in vivo, sc, 20 mg/kg. The procedure:
The concentration of the full-length oligonucleotide as well as the total oligonucleotide concentration (including the degraded form) was measured. The method used is a modification of previously published methods (Leeds et al., 1996; Geary et al., 1999) which consist of a phenol-chloroform (liquid-liquid) extraction followed by a solid phase extraction. An internal standard (ISIS 355868, a 27-mer 2′-O-methoxyethyl modified phosphorothioate oligonucleotide, […], designated herein as SEQ ID NO: 270) was added prior to extraction. […] The results are presented in Tables 98 and 99, expressed as μg/g liver or kidney tissue.
Regarding “416856 (antisense GGCATTGGTGCACAGTTTCT; 5-10-5 gapmer, wing sugar chemistry not given here, further chemistry not given here) [compound 416856]”, the “Half-life in the liver and kidney” value is recorded as 19 days.

Regarding “416861 (antisense GCGGACGGCATTGGTGCACA; 5-10-5 gapmer, wing sugar chemistry not given here, further chemistry not given here) [compound 416861]”, the “Half-life in the liver and kidney” value is listed as 25 days.

In the case of “416867 (antisense ACTGGCAGCGGACGGCATTG; 5-10-5 gapmer, wing sugar chemistry not given here, further chemistry not given here) [compound 416867]”, the “Half-life in the liver and kidney” value is on record as 19 days.

Consider “416866 (antisense CTGGCAGCGGACGGCATTGG; 5-10-5 gapmer, wing sugar chemistry not given here, further chemistry not given here) [compound 416866]”, for which the “Half-life in the liver and kidney” value was determined as 16 days.

As to “416848 (antisense CACAGTTTCTGGCAGGCCTC; 5-10-5 gapmer, wing sugar chemistry not given here, further chemistry not given here) [compound 416848]”, the “Half-life in the liver and kidney” value came out at 24 days.

On to “416859 (antisense GACGGCATTGGTGCACAGTT; 5-10-5 gapmer, wing sugar chemistry not given here, further chemistry not given here) [compound 416859]”, for which the “Half-life in the liver and kidney” value was determined as 19 days.

(Values after patent US20120083522A1, “MODULATION OF INFLAMMATORY RESPONSES BY FACTOR XI” (Isis Pharmaceuitcals, inc., priority 2009, published 2012).)
